Patent publication US12605362B2, “Eletriptan hydrobromide for treatment of spinal cord injury and improvement of locomotor function” (TECHNOPHAGE, INVESTIGAÇÃO E DESENVOLVIMENTO EM …, priority 2020, dated 2026)
Counter-ions that a name gives are not always drawn.

Legend:
5-HT1D = 5-HT1D (Homo sapiens, UniProt P28221); conditions: serotonin receptor agonist; cited from earlier work
[1] = test system: mice with T9 contusion type of injury; experiment: activated microglia quantification and morphology (P2Y12 / F4/80 immunohistochemistry); format: in vivo; conditions: 42 dpi; for number of P2Y12+ F4/80+ (activated microglia) cells: vs Vehicle
Procedure: (§1) A moderate-severe contusion-type of injury was performed on adult C57BL/6 female mice (10-12 weeks) with an Infinite Horizon Impactor (PSI)^30. All surgeries were performed under aseptic conditions. Briefly, under deep anesthesia with Ketamine and Xylazine (120 mg/kg and 16 mg/kg respectively, i.p.) mice received a dorsal laminectomy at the level of 9th thoracic vertebra (T9). After securing the lateral processes of the 8th thoracic vertebra (T8) and 10th thoracic vertebra (T10) with a stainless-steel impactor tip, a controlled force-defined impact at 75 kdyne was delivered to the exposed spinal cord^28,30. Then, muscle and skin were closed with 4.0 polyglycolic acid (PGA) absorbable sutures (Safil, G1048213). In this study, mice were excluded when the actual displacement value was outside the interval 500-700 μm or if the actual force after impact was >2SD 75 Kdyne. Immediately after injury, mice were injected subcutaneously with 0.5 ml of sterile saline and then daily for 5 days. During this experiment, mice underwent gentle bladder expression twice daily until they were voiding on their own. Weight was monitored daily until 15 days-post-injury (dpi) and then weekly for the duration of the study and a high caloric pellet (Supreme Mini-Treats™ S05478 and S05472) was provided as a dietary supplement since a 10% weight loss was typically observed in this SCI model upon injury. […]
For immunohistochemistry in sections, OCT was removed from the cryosections using PBS (30 minutes). […] For activated microglia quantification, sections were counterstained with DAPI. […]
To quantify the activated microglia one set of spinal cord sections were stained with anti-P2Y12 (a microglia specific marker) and anti-F4/80 (a pan macrophage marker) and counterstained with […] DAPI. Z-stack compositions were acquired in a motorized inverted widefield fluorescence microscope (Zeiss Cell Observer, Carl Zeiss MicroImaging) with 20× magnification. […]

[2] = test system: mice with T9 contusion type of injury; experiment: bladder function score during manual bladder expression after T9 contusion SCI; format: in vivo; conditions: vs Vehicle
Procedure: as §1, with “During this experiment, mice underwent gentle bladder expression twice daily until they were voiding on their own.” left out
Additionally, we also evaluated the bladder dysfunction status, which is a common effect seen after a SCI^3,37. […]

[3] = test system: transected zebrafish larvae; experiment: larval zebrafish phenotypic-based screen for SCI (transected spinal cord, DanioVision swimming activity); format: in vivo
Description: Tg(mnx1:GFP^m12), abbreviated as hb9:GFP were maintained and bred in constant conditions, by following standard guidelines for fish care and maintenance protocols^27. Zebrafish larvae were used in the phenotypic-based screen for SCI.
A larval zebrafish phenotypic-based screen was used to screen a pool of compounds from a small molecule library (PHARMAKON 1600-MicroSource Discovery Systems, Inc., USA) as previously described by Diana et al. 201928. Briefly, zebrafish larvae were allowed to develop in EM with 1 μM methylene blue until 5 days-post-fertilization (dpf). At 5dpf, zebrafish larvae spinal cords were transected at the level of the anal pore (Diana et al. 2019). At 1 dpi, larvae were randomly distributed into 6-well plates containing EM+10 mM HEPES and exposed during 24 hours to the chemical compounds added to the medium. At 2 dpi, behavioural assessment was performed using DanioVision™ (Noldus Information Technology, the Netherlands) an automated tracking system for zebrafish larvae. Larvae were allowed to freely swim in a 96-well plate (1 larva/well) with EM+10 mM HEPES and their swimming activity was tracked for […], under 10 minutes light-dark cycles (i.e. 3 light cycles and 3 dark cycles). The acquired track data was analysed using the Ethovision X.T. 10 software (Noldus, Wageningen, Netherlands) and only swimming activity obtained in the 3 dark periods were analysed^29.
To accelerate the discover of potential new therapeutics for spinal cord injury (SCI) we used a phenotypic assay that enabled the screening of a pool of chemical compounds from an FDA approved small molecules library. In this phenotypic-based screen, we blindly administered the chemical compounds (25 μM) at 1 day-post-injury (dpi) and we performed the behavioural assessment 24 hours later (i.e. at 2 dpi) as previously described by Chapela D. et al. 2019. The small molecules were first blindly selected, if there was a statistically significant improvement of total distance moved and/or turn angle parameters, which were chosen as indicators of locomotor function. […]

[4] = 25 μM from 1 dpi, assessed at 2 dpi, dark periods, vs vehicle

5-HT1D, sequence (P28221 whole entry, species assumed): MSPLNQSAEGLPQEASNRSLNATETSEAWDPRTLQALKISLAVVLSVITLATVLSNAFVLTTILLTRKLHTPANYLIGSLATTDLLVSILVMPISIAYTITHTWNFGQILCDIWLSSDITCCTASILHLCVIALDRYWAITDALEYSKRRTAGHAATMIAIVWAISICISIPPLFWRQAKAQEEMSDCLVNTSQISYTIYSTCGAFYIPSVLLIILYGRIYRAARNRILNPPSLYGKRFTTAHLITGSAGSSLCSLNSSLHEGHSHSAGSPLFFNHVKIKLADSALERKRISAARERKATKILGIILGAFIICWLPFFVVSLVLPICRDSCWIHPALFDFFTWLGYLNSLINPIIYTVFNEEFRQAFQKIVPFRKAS

CN1CCC[C@@H]1Cc1c[nH]c2ccc(CCS(=O)(=O)c3ccccc3)cc12 [Eletriptan Hbr, Eletriptan Hydrobromide]
affinity (5-HT1D): high affinity
number of P2Y12+ F4/80+ (activated microglia) cells [1]: no statistically significant differences
number of P2Y12+ F4/80+ (activated microglia) cells ([1]; at 400 μm rostrally and caudally to the epicentre): consistently higher
P2Y12+ microglia morphology ([1]; sections near or at the epicentre, feature not observed in Vehicle-treated mice): longer, ramified processes were also observed
volumes of retained urine (bladder score 0 to 3) ([2]; 1 dpi): statistically significant smaller volumes of retained urine
volumes of retained urine (bladder score 0 to 3) ([2]; after 1 dpi until the end of the study): no differences between experimental groups
total distance moved [3, 4]: rescues motor impairments
turn angle [3, 4]: rescues motor impairments
locomotor impairments ([3]; 25 μM in medium from 1 dpi for 24 hours, behavioural assessment at 2 dpi, vs vehicle treated injured larvae): rescue locomotor impairments
